{"source": "patent US7683044B2", "about": "“Sphingomyelin therapy of autoimmune disease” (Center for Molecular Medicine and Immunology, priority 1999, dated 2010)", "key": {"[1]": {"test_system": "B-cells isolated from individuals with autoimmune disease", "experiment": "MTT cell viability, sphingomyelin enhancement of chemotherapy on B-cells (Example 5)", "assay_type": "cell-based, human", "experimental": "(§1) Sphingomyelin enhancement of chemotherapy is evaluated by measuring its effect on 5-fluorouracil or doxorubicin (DOX) treatment of B-cells isolated from individuals with autoimmune disease and grown in culture. Cell viability is measured using the dye MTT (3-(4,5-dimethylthiazol-2-yl)-2,5-diphenyl tetrazolium bromide) in a 24-well chamber format. See Mosmann, T., J. Immunol. Methods, 65:55-63 (1983). B-cells are maintained in RPMI media supplemented with 10% fetal calf serum. Human umbilical cord venous endothelial cells (HUVEC) from pooled donors (Clonetics/BioWhittaker, San Diego, Calif.) are used as controls. Cells (10^4/well) are plated in the presence of varying concentrations of drug and sphingomyelin and grown in a humidified incubator. As an additional control, egg yolk phosphatidylcholine (PC) (Sigma, St. Louis, Mo.) is added to the cells instead of sphingomyelin. Drugs and lipids are added to HUVEC cells 24 hours after plating, but otherwise are treated the same. After four days, the media is replaced with media containing 0.5 mg/ml MTT and incubated two to four hours at 37° C. An equal volume of 0.04 N HCl in isopropanol is added, and the absorbance at 570 nm is measured. The IC50 values, defined as the concentration of drug necessary to reduce cell viability by 50%, from three to seven independent experiments are averaged and compared using ANOVA."}, "[2]": {"test_system": "Primary Sjogren's Syndrome (pSS)", "experiment": "Therapy of primary Sjogren's syndrome with rituximab combined with sphingomyelin (Example 4)", "assay_type": "in vivo, human", "experimental": "They then receive a course of rituximab (Rituxan, Genentech) at 600 mg infused over 6 hours every other week for 3 doses, combined with weekly infusions of sphingomyelin at doses of 400 mg for 6 weeks. During this therapy, only 15 mg prednisolone is continued as a maintenance therapy. After the first rituximab infusion, their circulating B-cells are measured to be depleted by 90%, which continues for about 8 months. Their main subjective symptoms of dry mouth and eyes show improvement, as well as their parotid gland reduction is noted, and also an improvement in their dry cough and purpura. An improvement of the objective parameters of dry eyes and dry mouth is also observed, and this improvement is maintained for at least 3 months after this therapy course. The combination of sphingomyelin with apoptosis-inducing agent is shown to be synergistic for treatment of pSS."}, "rheumatoid arthritis [3]": {"test_system": "rheumatoid arthritis", "experiment": "Therapy of rheumatoid arthritis with sphingomyelin, patient one (Example 1)", "assay_type": "in vivo, human", "experimental": "Various forms of sphingomyelin can be obtained in powder form from Sigma Chemicals (St. Louis, Mo.). Mix 1 g of sphingomyelin powder with 9.5 ml of sterile saline or phosphate buffered saline (PBS) and QS to 10 ml. Sonicate the resulting suspension in a water bath at 80-90° C. for 1 hour. The suspension should be administered within one hour of sonication and should be approximately room temperature (25-30° C.). The suspension can be stored at 4° C.; however, it should be re-sonicated for 30 minutes in a water bath at 80-90° C. before administration. […] They have a history of rheumatoid arthritis (RA) that presented about 5 years ago, and has undergone numerous treatments with corticosteroids, cyclophosphamide, and methotrexate, with responses of reduced durations and then relapses. They now present to their rheumatologist with active RA as judged by the presence of 5 tender and 4 swollen joints (out of 44 examined), morning stiffness for more than 45 minutes, an elevated erythrocyte sedimentation rate (ESR) of 40 mm/h (Westergren method), and an elevated C-reactive protein (CRP) blood level of 80 mg/L, as well as increased levels of rheumatoid factor (RF) of IgM, IgG, and IgA isotypes. All other laboratory tests, except circulating red blood cells (mild anemia), are within the normal range. They have been taking a nonsteroidal anti-inflammatory drug (NSAID; ibuprofen), 20 mg/day of prednisolone, and doses of cyclophosphamide i.v. (750 mg). The patient is allowed to continue on these medications, and is also given i.v. infusions of sphingomyelin (prepared as described above) in phosphate-buffered sterile saline and QS twice weekly at doses of 400 mg, continuing for 3 weeks. […] The patient is considered to have improved upon adding sphingomyelin i.v. therapy to their prior medications, to which they relapsed. Subsequently, they have their prednisolone maintenance therapy tapered to 5 mg daily with 200 mg sphingomyelin given 3 times weekly for 8 weeks, and is able to function as before without any deterioration of their condition, with increase in their physical activities and general reduction in joint pain and swelling."}, "[4]": {"test_system": "Systemic Lupus Erythematosus (SLE)", "experiment": "Therapy of systemic lupus erythematosus with sphingomyelin, epratuzumab and prednisolone (Example 2)", "assay_type": "in vivo, human", "from_the_text": "patient two is a person with two healthy children, and with a history of SLE for at least 8 years. They have received prior cyclophosphamide, azathioprine, and corticosteroid treatments, with recurrent activity flares resulting in increasing disability. They have had evidence of myelosuppression, with lymphopenia, resulting in tapering of their medications. Prior to receiving the current experimental therapy, they are confirmed to have a diagnosis of SLE according to the American College of Rheumatology revised criteria, and moderately active disease (a score of 10 for total British Isles Lupus Assessment Group (BILAG) disease activity) at study entry. Their current medication of prednisolone, 15 mg/day, is continued, and they receive epratuzumab (anti-CD22 humanized monoclonal antibody) i.v. at 360 mg/m^2 once weekly every other week for a total of 4 infusions. Prior to each infusion, they are medicated with acetaminophen (Tylenol) and antihistamine (Benadryl). They are also given an infusion of 300 mg sphingomyelin twice weekly for 8 weeks. Two and 6 weeks after completion of this therapy, they are evaluated, and it is decided that their prednisolone doses of 15 mg/day can be tapered to 10 mg/day, because of initial evidence of improvement of their BILAG scores in 3 of the 8 body systems. Four weeks later, the SLE panel of tests (autoantibodies, C3, C-reactive protein, erythrocyte sedimentation rate), and physical examination indicate progressive improvement, with less fatigue, lethargy, malaise, anorexia, reduction of malar erythemia, and reduction of arthritis. They are considered to have about a 40% improvement of their condition as a result of the investigational therapy."}, "rheumatoid arthritis [5]": {"test_system": "rheumatoid arthritis", "experiment": "Therapy of rheumatoid arthritis with adalimumab combined with sphingomyelin (Example 3)", "assay_type": "in vivo, human", "experimental": "A person with 3 healthy children presents with a history of rheumatoid arthritis (RA) for 9 years, and a prior therapy history of methotrexate, leflunomide, prednisolone, sometimes in combination. They continue on their methotrexate (10 mg) and prednisolone (10 mg) daily doses, and is now given the TNF antagonist, adalimumab (Humira, Abbott Laboratories) subcutaneously at 40 mg every other week, combined with weekly infusions of sphingomyelin at a dose of 400 mg. This therapy is continued for 12 weeks, and they are evaluated for response every 4 weeks after completion of their course of therapy by ACR 20%, 50% and 70% scoring, and EULAR responses."}, "[6]": {"test_system": "Human umbilical cord venous endothelial cells (HUVEC)", "experiment": "MTT cell viability, control HUVEC cells (Example 5)", "assay_type": "cell-based", "experimental": "as §1"}, "[7]": {"test_system": "chronic idiopathic thrombocytopenia purpura", "experiment": "Treatment of a patient with chronic idiopathic thrombocytopenia purpura (Example 6)", "assay_type": "in vivo, human", "experimental": "A person with chronic idiopathic thrombocytopenia purpura has been treated with gamma globulins and high-dose dexamethasone, but the disease progresses. They undergo splenectomy, which fails to stabilize the disease. Their platelet count falls to less than 20,000/microliter, and hemorrhagic events increase in frequency. The patient is then treated with epratuzumab, 480 mg intravenously each week, plus 400 mg/wk of sphingomyelin, for a period of six weeks. Four weeks after the last dose of epratuzumab and sphingomyelin, platelet number is increased by 300%, and the hemorrhagic events disappear."}, "[8]": {"test_system": "progressive rheumatoid arthritis", "assay_type": "in vivo, human", "from_the_text": "A person, with severe progressive rheumatoid arthritis of the finger joints, wrists, and elbows, has failed therapy with methotrexate, and obtains only minor relief when placed on Enbrel therapy."}, "myasthenia gravis": {"test_system": "myasthenia gravis", "experiment": "Treatment of a patient with myasthenia gravis, epratuzumab plus sphingomyelin (Example 8)", "assay_type": "in vivo, human", "experimental": "A person has failed all conventional therapy for myasthenia gravis, and is admitted to a neurological intensive therapy unit. The patient is stabilized by plasma exchange, and is given intravenous immunoglobulin to reduce the titer of anti-acetylcholine receptor antibody. The patient remains bedridden, and is then treated with epratuzumab, 600 mg intravenously each week, plus 400 mg/wk of sphingomyelin, for a period of six weeks. […] Two months after the last treatment the patient is mobile, and is released from the hospital."}, "[9]": {"conditions": "B-cells, MTT after four days, from IC50 values of drug"}}, "note": "Like-named read-outs stand apart in the source and are kept apart here."}
{"substance": "phosphatidylcholine [PC, reference compound]", "values": [{"measurement": "enhancement of chemosensitivity (5FU, DOX)", "setting": "[1]; lipid control added to the cells instead of sphingomyelin", "result": "does not elicit a similar effect"}]}
{"substance": "rituximab: Rituximab (Rituxan, anti-CD20) antibody [reference compound]", "values": [{"measurement": "depletion of circulating B-cells", "setting": "[2]; after the first rituximab infusion (600 mg), combined with weekly sphingomyelin 400 mg", "result": 90, "unit": "%"}, {"measurement": "duration of circulating B-cell depletion", "setting": "[2]; rituximab 600 mg every other week x3 + sphingomyelin 400 mg weekly for 6 weeks", "result": "about 8 months"}]}
{"substance": "sphingomyelin", "values": [{"measurement": "ESR, CRP and RF factor levels above the normal range", "setting": "rheumatoid arthritis [3]; 4 and 6 months after onset, therapy of prednisolone, NSAID and sphingomyelin repeated at 3 months", "result": "about 20%"}, {"measurement": "reduction of joint stiffness and swelling compared to baseline", "setting": "rheumatoid arthritis [3]; 4 and 6 months after onset, therapy repeated at 3 months", "result": "about 50%"}, {"measurement": "improvement in the ACR20 score", "setting": "rheumatoid arthritis [3]; 4 and 6 weeks after sphingomyelin 400 mg i.v. twice weekly for 3 weeks, added to ibuprofen, prednisolone, cyclophosphamide", "result": 20, "unit": "%"}, {"measurement": "improvement in the elevated CRP, RF and ESR levels", "setting": "rheumatoid arthritis [3]; 4 and 6 weeks after sphingomyelin 400 mg i.v. twice weekly for 3 weeks, added to prior medications", "result": "about 50%"}, {"measurement": "joint stiffness in the morning", "setting": "rheumatoid arthritis [3]; 4 and 6 weeks later, baseline more than 45 minutes", "result": "less than 15 minutes"}, {"measurement": "combination effect with standard anti-rheumatoid therapeutic agents", "setting": "rheumatoid arthritis [3]; compared with either sphingomyelin or standard agents alone", "result": "more than additive effect"}, {"measurement": "improvement of BILAG scores, number of body systems", "setting": "[4]; 2 and 6 weeks after sphingomyelin 300 mg twice weekly for 8 weeks + epratuzumab 360 mg/m^2 x4 + prednisolone 15 mg/day", "result": "3 of the 8 body systems"}, {"measurement": "improvement of condition", "setting": "[4]; four weeks later, sphingomyelin + epratuzumab + prednisolone", "result": "~40", "unit": "%"}, {"measurement": "combination effect with prednisolone and epratuzumab", "setting": "[4]; more effective than either agent alone", "result": "synergistic effect"}, {"measurement": "overall response", "setting": "rheumatoid arthritis [5]; 6-month evaluation, anti-TNF therapy combined with sphingomyelin", "result": "good response"}, {"measurement": "ACR response", "setting": "rheumatoid arthritis [5]; end of 12-week course, sphingomyelin 400 mg weekly + adalimumab 40 mg s.c. every other week + methotrexate, prednisolone", "result": "ACR50 improvement"}, {"measurement": "EULAR response", "setting": "rheumatoid arthritis [5]; end of 12-week course, sphingomyelin + adalimumab + methotrexate, prednisolone", "result": "moderate EURAR response"}, {"measurement": "tolerability of therapy", "setting": "rheumatoid arthritis [5]; sphingomyelin 400 mg weekly + adalimumab, 12 weeks", "result": "tolerated well"}, {"measurement": "duration of improvement after therapy course", "setting": "[2]; rituximab + sphingomyelin", "result": "at least 3 months"}, {"measurement": "objective parameters of dry eyes and dry mouth", "setting": "[2]; rituximab + sphingomyelin 400 mg weekly for 6 weeks, prednisolone 15 mg maintenance", "result": "improvement"}, {"measurement": "combination effect with apoptosis-inducing agent", "setting": "[2]; sphingomyelin with rituximab", "result": "synergistic"}, {"measurement": "increase of 5FU sensitivity", "setting": "[1]; [9]", "result": 140, "unit": "%"}, {"measurement": "increase of DOX sensitivity", "setting": "[1]; [9]", "result": 340, "unit": "%"}, {"measurement": "sensitization to 5FU or DOX therapy", "setting": "[6]", "result": "does not sensitize"}, {"measurement": "hemorrhagic events", "setting": "[7]; four weeks after last dose of epratuzumab and sphingomyelin", "result": "disappear"}, {"measurement": "increase of platelet number", "setting": "[7]; four weeks after last dose, epratuzumab 480 mg i.v. weekly + sphingomyelin 400 mg/wk for six weeks", "result": 300, "unit": "%"}, {"measurement": "disease status", "setting": "[7]; three months after the last treatment", "result": "full remission"}, {"measurement": "improvement in measures of disease activity", "setting": "[8]; 6 months after the second therapy with veltuzumab and sphingomyelin", "result": 70, "unit": "%"}, {"measurement": "improvement in measures of disease activity", "setting": "[8]; after 3 weeks, veltuzumab 80 mg i.v. weekly + sphingomyelin 400 mg/wk for eight weeks", "result": 30, "unit": "%"}, {"measurement": "duration for which the improvement is maintained", "setting": "[8]; after first course of veltuzumab + sphingomyelin", "result": 6, "unit": "months"}, {"measurement": "normal B-cells in the blood", "setting": "[8]; veltuzumab + sphingomyelin", "result": "significantly reduced"}, {"measurement": "drop in B-lymphocytes", "setting": "myasthenia gravis; one week after last treatment, epratuzumab 600 mg i.v. weekly + sphingomyelin 400 mg/wk for six weeks", "result": 50, "unit": "%"}, {"measurement": "titer of the anti-acetylcholine (receptor antibody)", "setting": "myasthenia gravis; one week after last treatment, epratuzumab + sphingomyelin", "result": "significant drop"}, {"measurement": "clinical status", "setting": "myasthenia gravis; two months after the last treatment", "result": "mobile"}]}
{"substance": "veltuzumab: anti-CD20 humanized Mab", "values": [{"measurement": "human anti-veltuzumab antibodies", "setting": "[8]; human, in vivo", "result": "No human anti-veltuzumab antibodies are observed"}]}
